In data set [1] the target is T1, human GPR119 receptor (Homo sapiens, UniProt Q8TDV5).
T1 construct: host or cells: GeneBLAzer T-Rex GPR 119 CHO-K1 DA cells (CHO-K1)
T1 sequence (Q8TDV5 1-335): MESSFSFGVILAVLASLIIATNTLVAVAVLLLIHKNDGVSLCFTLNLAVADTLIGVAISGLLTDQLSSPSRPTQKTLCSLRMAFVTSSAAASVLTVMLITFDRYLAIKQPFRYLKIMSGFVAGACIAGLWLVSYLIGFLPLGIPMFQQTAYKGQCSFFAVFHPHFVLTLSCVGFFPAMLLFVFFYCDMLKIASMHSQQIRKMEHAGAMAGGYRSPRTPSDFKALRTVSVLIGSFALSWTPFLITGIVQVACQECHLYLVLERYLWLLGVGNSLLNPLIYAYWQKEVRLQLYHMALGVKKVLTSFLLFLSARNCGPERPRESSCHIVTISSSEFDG
As to the kind of experiment: Activity test for human GPR119 receptor (GeneBLAzer T-Rex GPR 119 CHO-K1 DA cells). Type of data set: cell-based. The method in brief:
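Compounds at 0.1, 1 and 10 μM, in duplicate, on GeneBLAzer T-Rex GPR119 CHO-K1 DA cells for 5 h, then 2 h with colour-development reagent before fluorescence reading. Test-to-vehicle-control ratio converted to EC50; mean±SD.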

A short description of data set [2]: Solubility test of GPR 119 agonist compounds (Nephelostar). It is filed as physicochemical. Conditions: aqueous with cosolvent or surfactant or cyclodextrin, kinetic from dmso stock. As to the method:
1. Method of Solubility Test
Each test compounds were dissolved in 5% DMSO aqueous solution as a solvent at several concentrations. When a laser was irradiated to the solution, the particles, which are not dissolved in the solvent, scatter the light. The level of the scattered light is dependent to the number of the particles, so the solubility of the test compound in the solution can be determined using the relationship. As the test equipment, Nephelostar was used.

The subject of data set [3] is Glucagon-Like Peptide-1 (GLP-1) secretion. Briefly: Secretion capacity test of glucagon-like peptide-1 (GLP-1). Type of data set: in vivo, mouse. Conditions: normal mice, oral, AUC of plasma GLP-1 level, vehicle (water) 100%. As to the method: 3. Secretion Capacity Test of Glucagon-Like Peptide-1 (GLP-1)
Male C57/6J Jms mice of 6-7 weeks of age were fasted for 16 hours before the start of the test of secretion capacity test of GLP-1. The experimental animal groups consist of: a vehicle group (100% DI water); and test groups administered with each compounds (10 mg/kg). Blood samples were taken from the orbital vein of the test animals. Plasma GLP-1 level was determined using a GLP-1 ELISA kit (Total GLP-1 ELISA, ALPCO). With the base of 30 minutes before the compound administration, each blood samples were taken at 30, 60, 120 and 210 minutes after the compound administration. 30% Glucose solution (3 g/kg/10 mL) was administered orally at 5 minutes before each blood-collecting. From the collected blood, only plasma was taken using a centrifuge (12000 rpm, 15 minutes), and stored at −80° C. before analysis. Plasma GLP-1 level vs. Time was graphicalized. Area under the curve (AUC) of plasma GLP-1 level was obtained using GraphPad Prism 4.0. All the results were expressed as mean±SD, and each test groups and the control group were compared using one-way ANOVA test (Dunnett's test, *p<0.05, **p<0.01, ***p<0.001) to adjudge the effects of each test groups.

The test system of data set [4] is Male C57/6J Jms mice. As to the kind of experiment: Glucose tolerance test in normal mouse. Type of data set: in vivo. The method, then:
1. Method of Glucose Tolerance Test
Male C57/6J Jms mice of 6-7 weeks of age were fasted for 16 hours before the start of glucose tolerance test. […]
Before compound administration, that is, at 0 hour, whole blood glucose level was determined using a Glucometer (ACCU-CHEK, Roche). At 30 minutes after compound administration, whole blood glucose level was determined once again, and 20% glucose (2 g/kg/10 mL) was administered orally. Whole blood glucose level was determined at 20, 40, 60, 80, and 120 minutes after 20% glucose administration. Whole blood glucose level vs. Time was graphicalized. Area under the curve (AUC) of whole blood glucose level was obtained using GraphPad Prism 4.0. The effect of glucose tolerance was adjudged with the corrected area under the curve (cAUC), on which the base value of glucose area under the curve was excluded.

In brackets after ≈: the same amount, converted by molar mass. Read-outs that look alike come from different tables or passages of the source.

With `CCC(F)(CC)CN1CCC(COc2ccc(-c3ccc(C(=O)N4C[C@H](O)C[C@@]4(C)C(N)=O)c(F)c3)nc2)CC1` [Compound 1291, (2S,4R)-1-(4-(5-((1-(2-ethyl-2-fluorobutyl)piperidin-4-yl)methoxy)pyridin-2-yl)-2-fluorobenzoyl)-4-hydroxy-2-methylpyrrolidin-2-carboxamide], in data set [1] (human GPR119 receptor expressing CHO-K1 cells, 5 hours treatment, read-out: hGPR119 EC50), the EC50 (usually the concentration at which the effect is half-maximal) came out at 13 nM. Besides, in data set [1] (judgement on the EC50 values of Table 11), the “activity for human GPR119 receptor (in words)” value is “excellent activity”. Besides, the solubility (commonly how much of the substance goes into solution per volume) in data set [2] (pH 2, 5% DMSO aqueous solution, read-out: Solubility pH 2) is over 279 µg/mL; in data set [2] (pH 4, 5% DMSO aqueous solution, read-out: Solubility pH 4) it was over 279 µg/mL; in data set [2] (pH 6, 5% DMSO aqueous solution, read-out: Solubility pH 6) it was over 279 µg/mL; in data set [2] (pH 8, 5% DMSO aqueous solution, read-out: Solubility pH 8), 166 µg/mL (≈ 297 µM). Further, the “GLP-1 secretion (%) at 10 mg/kg of dose” value in data set [3] is reported as 347%. Moreover, the “Decrease % of AUC at 2.5 mg/kg” value in data set [4] (2.5 mg/kg) turned out to be 15.7%. Moreover, the “Decrease % of AUC at 5 mg/kg” value in data set [4] (5 mg/kg) stood at 38.0%.

The values above are taken from patent publication US9776987B2, “Amide derivatives for GPR119 agonist” (CHONG KUN DANG PHARMACEUTICAL CORP., priority 2013, dated 2017).
